Source: patent US20070191324A1, “Methods for treatment or prophylaxis of aldosterone-mediated pathogenic effects in a subject using an epoxy-steroidal aldosterone antagonist” (priority 1999, published 2007)
Read-outs that look alike come from different tables or passages of the source.

Experiments:
[1] = system: diabetic type 2 patients with hypertension and microalbuminuria; assay: Eplerenone, enalapril and combination in diabetic hypertensives with microalbuminuria, 24 weeks (Examples A-18, D-7); assay type: in vivo, human
[2] = Food effect pharmacokinetic studies, Japan and Ex-Japan (Example A-11); assay type: in vivo, human; conditions: single 100 mg; for AUC(0-inf) / Cmax / AUC: male, human, in vivo, oral, 100 mg; for AUC: read-out: AUC (0-lqc)
Method: (§1) The […] trials included (i) a single dose tolerability trial, and (ii) a multiple dose tolerability trial, and (iii) a food effect study.
(§2) Both single dose and multiple dose tolerability trials were conducted in Japan utilizing healthy male Japanese subjects. […] Six subjects who received the 100 mg dose also participated in the food effect treatment arm of the single dose tolerability trial.
Table A-11C contains the geometric least squares means for the fed and fasting regimens, the ratios of means and the corresponding 95% confidence intervals (CI) for the ratios of the means for the Japan and Ex-Japan food effect trials.
(§3) Each panel consisted of six subjects who were given eplerenone and two subjects who were given placebo.

[3] = system: patients with mild to moderate hypertension; assay: Eplerenone/HCTZ dose ranging factorial design study (Example D-2); assay type: in vivo, human
Method: Patients were assessed at weeks 0, 2, 4, and 8. Study assessments at protocol-specified timepoints included blood pressure (BP), heart rate, clinical laboratory analyses, vital signs, physical examinations, 12-lead ECG, and monitoring of adverse events. A total of 614 patients were randomized.

[4] = Single dose pharmacokinetics, Japan and Ex-Japan trials (Example A-11); assay type: in vivo, human; conditions: for Vd/F: male, human, in vivo, oral, single dose, least squares mean, read-out: Vss/F
Method: A total of 76 European subjects and 38 Japanese subjects participated in the single and multiple dose tolerability and food effect trials. Three of the studies were Ex-Japan studies and included doses ranging from 10 mg to 1000 mg. The other two studies were conducted in Japan and included doses ranging from 50 mg to 600 mg.
as §1, §2
Combining single dose fasting pharmacokinetic data from all five studies, an analysis of variance with factors for country (Japan, Ex-Japan), study nested within country, and dose were performed on the dose-normalized Cmax and AUC values to assess the effect of country (population). Dose normalization was done to the lowest dose (10 mg for single dose, 100 mg for multiple dose). In the absence of intravenous data, the distribution volume (V/F) and clearance (CL/F) parameters are represented as the apparent values and are normalized to 70 kg of body weight. There were no statistically significant differences between the Japan and Ex-Japan trials in any of the pharmacokinetic parameters analyzed.
No statistically significant differences were noted between the Japan and ex-Japan population for any of the derived parameters evaluated.
as §3

saline-drinking SHRSP [5] = assay: Renal pathologic changes in saline-drinking SHRSP, Protocol 1 (Example A-8); assay type: in vivo, rat (SHRSP/A3N)
Method: Animals. Studies were conducted in accordance with institutional guidelines using male […] (generations […]-78), n=37, from our local colony. These animals were bred from NIH stock, derived from the […] substrain described originally by Okamoto and coworkers (Okamoto K et al. Circ. […] All animals were housed in a room maintained on a 12:12-h light:dark-cycle and an ambient temperature of 22±1° C. in the Animal Care Facility at New York Medical College. Rats were weaned at 4 weeks of age and allowed free access to Purina Lab Chow 5001 (Ralston Purina, St. Louis, Mo.) and tap water until the initiation of experimental protocols. […] Animals were examined each day for neurologic signs of stroke. Systolic arterial pressure and heart rate were measured each week in awake rats. […] Trunk blood was collected into chilled EDTA tubes following rapid decapitation of the animals between 10:00 am and 12:00 pm. Blood was stored at -20° C. for later measurement of plasma aldosterone levels. The kidneys were rapidly removed, weighed, and then preserved in fixative for later histologic examination. Assays and Analyses. Systolic blood pressure and heart rate of awake animals were measured by tail-cuff plethysmography using a Natsume KN-210 manometer and tachometer (Peninsula Laboratories Inc., Belmont, Calif.). Rats were warmed at 37° C. for 10 min and allowed to rest quietly in a Lucite chamber before measurement of blood pressure. Measurements of urine volume were made gravimetrically. Urinary protein concentration was determined by the sulfosalicylic acid turbidity method. Plasma aldosterone was measured by radioimmunoassay using ^125I-aldosterone as a tracer (Coat-a Count Aldosterone, Diagnostic Products Co., Los Angeles, Calif.). Histology. […] Coronal sections (2-3 μm) were stained with hematoxylin and eosin and examined by light microscopy in a blinded fashion as previously described ([…] et al. […] Glomerular damage was categorized as ischemic or thrombotic. Ischemic lesions were defined as retraction of glomerular capillary tufts with or without appreciable mesangiolysis. […] The presence of casts and tubular (ischemic) retraction and simplification was assessed semiquantitatively. […] Significant effects with respect to treatment and time were determined by two-way analysis of variance. Data with only one grouping variable were analyzed statistically by Student's unpaired t tests. […] Data were analyzed using version 2.01 of the GraphPad Prism statistical software package (GraphPad Software Inc., San Diego, Calif.). […]

saline-drinking SHRSP [6] = assay: Stroke and cerebrovascular damage in saline-drinking SHRSP (Example A-7); assay type: in vivo, rat; conditions: 100 mg/kg/day, up to 18.5 weeks of age
Description: Fifteen male, 9 weeks of age, saline-drinking SHRSP were included in the experiment. […] A-12). […] Using a semi-quantitative scoring system from 0-4 for cerebral injury (FIG.

[7] = eplerenone 25, 50 or 200 mg daily, HCTZ 12.5 or 25 mg daily, 8 weeks

With COC(=O)[C@@H]1CC2=CC(=O)CC[C@]2(C)[C@@]23O[C@@H]2C[C@@]2(C)[C@@H](CC[C@@]24CCC(=O)O4)[C@H]13 [Eplerenone, Pregn-4-ene-7,21-dicarboxylic acid, 9,11-epoxy-17-hydroxy-3-oxo-, γ-lactone, methyl ester, (7α, 11α, 17β)-] the “patients withdrawn for hyperkalemia” value ([1]; 24 weeks) was 6 patients, the “reduction in microalbuminuria (UACR)” value ([1]; 24 weeks) was “greater reduction in microalbuminuria than enalapril” and the “subjects with elevated K+ (≧6.0 mEq/L)” value ([1]; 24 weeks) was 8 subjects. The “patients requiring addition of hydrochlorothiazide (HCTZ)” value ([1]; EPL 200 mg QD, ENAL 40 mg QD, EPL 200 mg/ENAL 10 mg, 24 weeks) was 36/84, the “Adjusted mean change ΔDBP (Week 8-baseline)” value ([1]; Week 8) was −10.2 and the “Adjusted mean change ΔSBP (Week 8-baseline)” value ([1]; Week 8) was −13.5. For the same compound, the “Adjusted mean change ΔDBP (Week 24-baseline)” value ([1]; Week 24) was −13.2, the “Adjusted mean change ΔSBP (Week 24-baseline)” value ([1]; Week 24) was −19.5 and the tolerability ([1]; in vivo) was “well tolerated”. The “AUC (0-inf) Mean Ratio fed/fasted” value ([2]; Ex-Japan) was 1.079, the “AUC (0-inf) Mean Ratio fed/fasted” value ([2]; Japan) was 1.218 and the AUC(0-inf) ([2]; Ex-Japan, Fasted) was 9060 ng·h/mL. The Cmax ([2]; Ex-Japan, Fasted) was 1620 ng/mL, the AUC ([2]; Ex-Japan, Fasted) was 8940 ng·h/mL and the AUC(0-inf) ([2]; Ex-Japan, Fed) was 9780 ng·h/mL. It also gave a Cmax ([2]; Ex-Japan, Fed (high fat meal)) of 1320 ng/mL, an AUC ([2]; Ex-Japan, Fed) of 9650 ng·h/mL and an AUC(0-inf) ([2]; Japan, Fasted) of 8970 ng·h/mL. For the same compound, the Cmax ([2]; Japan, Fasted) was 1310 ng/mL, the AUC(0-inf) ([2]; Japan, Fed) was 10900 ng·h/mL and the Cmax ([2]; Japan, Fed) was 1520 ng/mL. For the same compound, the gynecomastia ([3]; eight weeks) was “Gynecomastia was not observed”, the safety and tolerability ([3]; eight weeks, monotherapy or in combination with HCTZ) was “safe and well tolerated” and the “DBP, change from Baseline to the Final Visit” value [3, 7] was “dose-dependent decreases in DBP”. The “SBP, change from Baseline to the Final Visit” value [3, 7] was “dose-dependent decreases in SBP”, the “clinical lab abnormalities and adverse events” value ([4]; healthy Japanese male subjects, single doses 50-600 mg) was “no adverse events were reported” and the Vd/F ([4]; Ex-Japan) was 80.6 L. For the same compound, the Vd/F ([4]; Japan) was 80.1 L, the “Glomerular damage, Total” value (saline-drinking SHRSP [5]; 100 mg/kg/d by gavage, 8.4 to 13.1 weeks of age) was “only rare instances of ischemic or thrombotic glomeruli” and the “plasma concentration of aldosterone” value (saline-drinking SHRSP [5]; 100 mg/kg/d, 5 weeks) was 315 ± 35 pg/mL. For the same compound, the signs of stroke (saline-drinking SHRSP [5]; 100 mg/kg/d, 5 weeks) was “none of eplerenone-treated SHRSP showed evidence of stroke”, the “tubules with ischemic retraction and simplification” value (saline-drinking SHRSP [5]; 100 mg/kg/d, 5 weeks) was 0.5±0.2% and the stroke signs (saline-drinking SHRSP [6]) was “no signs of stroke”.
